Test results reported in US20060241178A1, “Compositions and methods for treating lung cancer” (priority 2002, published 2006).
“Also recorded” adds a separate entry of the source. Where two headings read alike, the source gives them in different places. Marks after values point to notes of the source that are not given here.

Legend:
[1] = system: AP-1 binding activity in A549 cells; assay: EMSA of AP-1 binding activity in A549 cells; type: cell-based, human; set-up: AP-1 binding activity: dose or concentration left out as unconfirmed; settings: for 24 h
Description: Cell Lines: The human lung adenocarcinoma cell line A549 was obtained from the American Type Culture Collection (ATCC) (Bethesda, Md.). […] Cells were grown at 37° C. with 5% CO2.
Reagents: The PEITC was obtained from Aldrich (Milwaukee, Wis.) and its N-acetylcysteine conjugate was synthesized in house by the Organic Synthesis Facility using the method described previously (Kassahun et al., Chem Res Toxicol 1997, 10(11):1228-33). Unless specified otherwise, the A549 cells were treated with 10 or 25 μM of PEITC-NAC. TPA (12-O-tetradecanoylphorbol-13-acetate) was purchased from Sigma (St. Louis, Mo.).
Electrophoretic Mobility Shift Assay (EMSA): Double-stranded oligonucleotides containing the consensus-binding site for AP-1 were purchased commercially (Santa Cruz Biotech). The oligos were labeled with γ-^32P-ATP (6000 Ci/mmol, Armeshem Pharmacia Biotech. Inc Piscataway, N.J.) using polynucleotide kinase (Promega, Madison, Wis.) according to standard procedures. The labeled DNA was incubated with 5 μg of total proteins (as specified in the Results section) for 10 min at room temperature, in the presence of 1 μg of poly d(I)-d(C) oligomer (Roche Molecular Biochemicals, Indianapolis, Ind.) and DNA-binding buffer as described previously (Yang et al., Cell Growth Differ 1993, 4(7):595-602). The complexes were then separated on a 7.5% polyacrylamide gel and autoradiographed.
Proteins Isolation: Cells were incubated in a 37° C. with 5% CO2, followed by mock or treatments specified in the results section. Total proteins were then isolated using RIPA buffer. The protease inhibitors aprotinin (1 μg/ml), leupeptin (1 μg/ml), pepstatin (1 μg/ml), phenylmethylsulfonyl fluoride (0.1 mM) and the phosphatase inhibitor Na3VO4 (1 mM), NaF (1 mM) were added to all buffers. The protein concentrations were determined using the Coomassie Plus Protein Assay Reagent (Pierce, Rockford, Ill.), and aliquots of the proteins were stored at −80° C.

A549 cells = assay: Apoptosis in A549 cells treated with TPA, PEITC-NAC or TPA plus PEITC-NAC (photography, DAPI staining); type: cell-based, human; settings: 100 nM TPA
Excerpt: Assay for single cell DNA strand breaks: A549 cells treated with or without TPA, PEITC-NAC or TPA plus PEITC-NAC were collected at the times specified in the text, cytocentrifuged and stained with 4′-6′diamidino-2-phenylindole (DAPI). The photographs were taken using an Olympus AX 70 microscope (Melville, N.Y.) with fluorescence and SPOT RT Slider digital image system (Diagnostic Instruments Inc., Sterling Heights, Mich.). Arrows indicated the typical apoptotic features of DNA strand breakage and nuclear fragmentation.
TPA (100 nM) was added to A549 cells 12 h prior to addition of PEITC-NAC, which was added 24 h before photography of cells, protein isolation, or DAPI staining. […] These cells were treated identically, but were stained with the DNA fluorochrome DAPI.

[2] = system: NNK/B(a)P-induced lung adenomas and adenocarcinomas; settings: for Adenocarcinoma Incidence (%) / Adenoma Incidence (%) / Adenoma Multiplicity mean ± SD / Adenocarcinoma Multiplicity mean ± SD: preliminary; for mean numbers of lung adenomas compared with carcinogen control mice: at termination
Description: The test compounds were given in the diet on week 21 after beginning of a weekly dose of a mixture of NNK/B(a)P: 3 μmol each (621 μg NNK and 756 μg B(a)P) in 0.1 ml cottonseed oil for eight weeks (a total of 8 doses) (groups 1 to 10); only vehicle (cottonseed oil) for groups 11 to 15. Animals were then given experimental diet for 20 weeks until week 40. Four mice in groups 1, 2, 4, 6, 8, and 10 (see Table 1) were sacrificed on weeks 20, 38, and 40. The bioassay was terminated on week 52. If sufficient numbers of tumors were developed in mice killed on week 40, the bioassay was terminated at week 40. Tumors (adenomas and carcinomas) were quantified by multiplicity and incidence. At sacrifice, livers and lungs were harvested and the tissues rinsed in autoclaved PBS, stored in labeled foil, and snap frozen in liquid nitrogen. These tissues both tumorous and non-tumorous were processed by histology for biomarker studies (TUNEL, PCNA,p53, […] kinases, etc.). Lungs were examined by histology at termination (52 week or 40 week) for adenomas and carcinomas).
In this study, the potential protective effects of ITCs and ITC-NACs against progression of lung adenomas to malignant tumors were investigated. Lung tumors were induced in A/J mice with 3 μmol B(a)P plus 3 μmol NNK (gavage once/wk, 8 wks); mice were maintained on AIN-76A semi-purified diets. […] Diets containing PEITC (phenethyl ITC) or SFN (sulforaphane), each at 3 mmol/kg and 1.5 mmol/kg diet; PEITC-NAC or SFN-NAC at 8 mmol/kg and 4 mmol/kg diet; and NAC at 8 mmol/kg diet were then provided to groups of 28 mice (high dose) or 20 mice (low dose) during weeks 20 to 40 after initiation. Four mice in each high dose treatment group were killed during weeks 28 and 40 to monitor tumor incidence and progression; lung tissues were used for molecular studies. Remaining mice were killed at 40 weeks for histopathological examination. […] To assess molecular events occurring during the treatments, lung RNA of mice treated with B(a)P+NNK/control diet and B(a)P+NNK/PEITC-NAC high dose diet was examined using a Mouse Cancer Pathway Finder Gene Array.

[3] = system: aberrant crypt foci in the colon; settings: oral, after or independent of timing of azoxymethane; cited from earlier work
p53 [4] = settings: mouse epidermal cell line, with accompanying apoptosis; cited from earlier work
[5] = system: p53 (−/−) mouse embryo fibroblasts; settings: cited from earlier work
[6] = system: B(a)P-induced lung adenoma; assay: Tumor bioassay: B(a)P-induced lung tumorigenesis, ITC-NAC conjugates in diet during post-initiation phase
Description: The ITC conjugates were incorporated (15 μmol/g diet) into AIN-76A diets (5% corn oil) by mixing with dextrose prior to diet preparation. The conjugates, 9.36 g BITC-NAC (15 mmol) or 9.79 g PEITC-NAC (15 mmol), were dissolved in 50 ml ethyl acetate, and then mixed with 200 g dextrose to ensure even coating of dextrose particles. After mixing with dextrose, the solvent was removed using a rotary evaporator and further dried using a vacuum pump (2-3 h). Diets were prepared in 1-2 kg batches, and were stored at 4° C. in a container purged with nitrogen. […] Stability was determined by extraction of 0.5 g portions of the diet with 2.5 ml methanol (2×). The methanol extracts were combined and a 1 ml aliquot was filtered using a 0.47 μm syringe filter. A 10 μl sample was then analyzed on HPLC (Jiao, et al., Chem. Res. Toxicol., 9: 932-938, 1996).
Tumor Bioassay: Female strain A mice (Jackson Laboratories, Bar Harbor, Me.) of four weeks of age were housed under quarantine in polycarbonate cages (5 mice/cage) and provided modified AIN 76A diet (5% corn oil) and acidified drinking water ad libitum. The mice were maintained on a 12 h light: 12 h dark regimen at 22±5° C. and 50±20% relative humidity. After one week, the mice were weighed, and distributed into four groups containing 30 to 35 mice on the basis of body weight. At seven weeks of age, the mice in groups 1-3 were gavaged with a single dose of 20 μmol B(a)P in 0.2 ml cottonseed oil; group 4 received the vehicle only. Two days after dosing with the carcinogen, diets containing BITC-NAC (15 μmol/g, Group 2) and PEITC-NAC (15 μmol/g, Group 3) were provided. Groups 1 (B[a]P control) and 4 (vehicle only) remained on the modified AIN-76A diet with 5% corn oil. Tap water was provided ad libitum during the course of the bioassay. Mice were observed daily; diets were replenished on the fourth day of the week, and completely replaced on the seventh day. Mice were weighed weekly for four weeks, then monthly and at termination. At 84 days after B(a)P dosing, four mice per group were killed (CO2, cervical dislocation) to harvest lung tissues for molecular and immunohistochemical studies and to quantify lung adenomas, if present. At 140 days after B(a)P, the remaining mice in each group were killed. The number of lung tumors was recorded; lobes of lungs were placed in 10% phosphate buffered formalin for histological and immunohistochemical analysis. The remaining lung lobes were snap frozen in liquid nitrogen.
Mean tumor multiplicity and body weights at each time point were compared between groups using Student's T test.

[7] = system: alveolar epithelium cells of lung; assay: In situ end-labeling (ISEL/TUNEL) of apoptosis in lung sections; type: in vivo, A/J mice
JNK 1 and 2 = assay: Western blot of lung total proteins: JNK phosphorylation; type: in vivo, A/J mice; settings: lung tissue 21 days after B(a)P
p53 [8] = assay: Western blot of lung proteins: p53 expression and phosphorylation; type: in vivo, A/J mice; settings: lungs at termination of the bioassay
[9] = Stability of conjugates in AIN-76A diet (methanol extraction, HPLC); type: physicochemical; settings: stored at 4° C. under nitrogen
Description: The ITC conjugates were incorporated (15 μmol/g diet) into AIN-76A diets (5% corn oil) by mixing with dextrose prior to diet preparation. […] After mixing with dextrose, the solvent was removed using a rotary evaporator and further dried using a vacuum pump (2-3 h). Diets were prepared in 1-2 kg batches, and were stored at 4° C. in a container purged with nitrogen. […] Stability was determined by extraction of 0.5 g portions of the diet with 2.5 ml methanol (2×). The methanol extracts were combined and a 1 ml aliquot was filtered using a 0.47 μm syringe filter.

[10] = high dose (3 or 8 mmol/kg diet)
[11] = high dose (PEITC, SFN 3 mmol/kg diet; PEITC-NAC, SFN-NAC, NAC 8 mmol/kg diet)
[12] = low dose (1.5 or 4 mmol/kg diet)
[13] = low dose (PEITC, SFN 1.5 mmol/kg diet; PEITC-NAC, SFN-NAC 4 mmol/kg diet)

SMILES: CCCCCCCCCCCCCC(=O)O[C@@H]1[C@@H](C)[C@@]2(O)[C@@H](C=C(CO)C[C@]3(O)C(=O)C(C)=C[C@@H]23)[C@@H]2C(C)(C)[C@]12OC(C)=O [TPA, 12-O-tetradecanoylphorbol-13-acetate]
- AP-1 binding activity [1]: specifically induced
- cell growth / apoptosis with TPA alone (A549 cells): appear to be growing well; also recorded: did not cause apoptosis in A549 cells

SMILES: S=C=NCCc1ccccc1 [PEITC, phenethyl isothiocyanate]
- Adenocarcinoma Incidence (%) [2, 10]: 6/32 (19%)*
- Adenoma Incidence (%) [2, 10]: 31/32 (96.90%)
- Adenoma Multiplicity mean ± SD [2, 11]: 8.81 ± 3.96
- Overall % Survival ([2]; high dose, adjusted for scheduled sacrifices, control 29.8%): 21.10%
- Adenocarcinoma Incidence (%) [2, 12]: 7/20 (35%)
- Adenocarcinoma Multiplicity mean ± SD [2, 12]: 1.15 ± 1.85
- Adenoma Incidence (%) [2, 12]: 19/20 (95%)
- Adenoma Multiplicity mean ± SD [2, 13]: 7.25 ± 4.43
- aberrant crypt foci formation [3]: inhibited foci formation
- p53 transactivation (p53 [4]): induces p53 transactivation in a dose- and time-dependent manner
- induction of apoptosis [5]: did not induce apoptosis

SMILES: CC(=O)NC(CSC(=S)NCCCC[S+](C)[O-])C(=O)O (centres unmarked) [SFN-NAC, sulforaphane-NAC]
- mean numbers of lung adenomas compared with carcinogen control mice [2]: decreases were significant
- Adenocarcinoma Incidence (%) [2, 10]: 5/31 (16.13%)
- Adenocarcinoma Multiplicity mean ± SD [2, 10]: 0.42 ± 1.01
- Adenoma Incidence (%) [2, 10]: 31/31 (100%)
- Adenoma Multiplicity mean ± SD [2, 11]: 9.06 ± 5.35
- Adenocarcinoma Incidence (%) [2, 12]: 2/19 (10.53%)
- Adenocarcinoma Multiplicity mean ± SD [2, 12]: 0.32 ± 0.92
- Adenoma Incidence (%) [2, 12]: 18/19 (94.74%)
- Adenoma Multiplicity mean ± SD [2, 13]: 8.53 ± 4.32

SMILES: CC(=O)N[C@@H](CS)C(=O)O [NAC, N-acetyl-L-cysteine]
- mean numbers of lung adenomas compared with carcinogen control mice [2]: decreases were significant
- Adenocarcinoma Incidence (%) [2, 10]: 4/8 (50%)
- Adenocarcinoma Multiplicity mean ± SD [2, 10]: 1.10 ± 1.51
- Adenoma Incidence (%) [2, 10]: 8/8 (100%)

SMILES: CC(=O)N[C@@H](CSC(=S)NCc1ccccc1)C(=O)O [BITC-NAC, benzyl isothiocyanate-NAC]
- tumor multiplicity ([6]; 15 μmol/g diet after B(a)P, at termination, B(a)P control 6.1±3.1): 3.7±2.9 tumors/mouse
- Tumor Incidence (%), lung adenoma ([6]; 15 μmol/g diet from 2 days after 20 μmol B(a)P, 140 days): 94%
- Tumor multiplicity (no. of tumors/mice), lung adenoma ([6]; 15 μmol/g diet from 2 days after 20 μmol B(a)P, 140 days, mean ± SD): 3.72 ± 2.90^b no. of tumors/mice
- average body weight at termination ([6]; 15 μmol/g diet, controls 25.8 g and 25.7 g): 22.9 g
- tumor reduction ([6]; versus B(a)P control diet group, at termination): 39%
- increase in apoptosis, non-tumorous lung tissue ([7]; after 140 days): 2.4 fold
- apoptotic index, fold elevation ([7]; lung tissue at 84 days, before tumors appeared): approximately 2 fold
- JNK 1 (p46) phosphorylation level (JNK 1 and 2): increase
- JNK 2 (p54) phosphorylation (JNK 1 and 2): only slightly induced
- phosphorylation of p53 at Ser15 (p53 [8]): moderate increase
- stability in diet [9]: stable for at least one month

SMILES: C[S+]([O-])CCCCN=C=S (centres unmarked) [SFN, sulforaphane]
- Adenocarcinoma Incidence (%) [2, 10]: 10/32 (31.3%)
- Adenocarcinoma Multiplicity mean ± SD [2, 10]: 0.84 ± 1.48
- Adenoma Incidence (%) [2, 10]: 30/32 (93.8%)
- Adenoma Multiplicity mean ± SD [2, 11]: 8.84 ± 5.72
- Adenocarcinoma Incidence (%) [2, 12]: 4/20 (20%)
- Adenocarcinoma Multiplicity mean ± SD [2, 12]: 0.30 ± 0.64
- Adenoma Incidence (%) [2, 12]: 20/20 (100%)
- Adenoma Multiplicity mean ± SD [2, 13]: 9.25 ± 4.15
- malignant tumor multiplicity ([2]; low dose groups, initiated control group 2.1): 0.9 tumors/mouse
- aberrant crypt foci formation [3]: inhibited foci formation
